Among the data in patent US20230096028A1, “BICYCLIC HETEROCYCLYL COMPOUNDS AND USES THEREOF” (Revolution Medicines, Inc., priority 2019, published 2023) are IC50 and Kd values, retold here.

In assay [1] the test system is PC-9 cells (EGFR Ex19Del). Put plainly: Potency Assay: pERK (SOS1 pERK IC50 Assay, AlphaLISA SureFire Ultra p-ERK1/2). It counts as cell-based. Particulars: Homo sapiens; PC-9 cells (EGFR Ex19Del), 1 hour incubation, AlphaLISA p-ERK1/2; read-out: SOS1 pERK IC50. An outline of the steps: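 Cellular pERK1/2 by AlphaLISA SureFire Ultra after 1 h compound exposure (37° C., highest concentration 10 μM, 3-fold steps, duplicates) of EGFR Ex19Del PC-9 cells seeded the day before. A 4-parameter fit of signal versus log concentration gives IC50.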

Assay [2] deals with T1, SOS1 catalytic domain (residues 564-1049) (Homo sapiens, UniProt Q07889).
T1 sequence (Q07889 564-1049): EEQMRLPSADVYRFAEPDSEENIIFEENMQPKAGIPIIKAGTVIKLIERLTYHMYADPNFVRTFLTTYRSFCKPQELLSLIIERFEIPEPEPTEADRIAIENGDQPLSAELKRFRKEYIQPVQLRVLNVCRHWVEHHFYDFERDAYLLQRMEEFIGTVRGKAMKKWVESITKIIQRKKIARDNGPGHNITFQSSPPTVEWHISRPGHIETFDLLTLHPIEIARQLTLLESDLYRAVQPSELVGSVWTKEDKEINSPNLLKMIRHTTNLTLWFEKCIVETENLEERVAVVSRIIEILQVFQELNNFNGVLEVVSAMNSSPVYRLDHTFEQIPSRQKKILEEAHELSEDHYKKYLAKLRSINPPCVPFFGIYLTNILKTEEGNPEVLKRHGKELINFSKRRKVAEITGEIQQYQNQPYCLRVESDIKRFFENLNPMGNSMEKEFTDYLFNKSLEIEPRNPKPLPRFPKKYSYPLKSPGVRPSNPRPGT
In words: Potency Assay: binding affinity to SOS1 using Surface Plasmon Resonance (SPR). Particulars: immobilized SOS1 catalytic domain (residues 564-1049), read-out: SOS1 SPR Equilibrium Kd. Details: SOS1 catalytic domain (residues 564-1049) immobilized on a sensor chip. An outline of the steps: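 Kd was obtained by plotting binding response, taken just before association ended, versus compound concentration on a Biacore 8K. Compounds flowed at 50 μL/min over streptavidin-captured avi-SOS1 catalytic domain (~6000 RU), followed by buffer dissociation; HEPES 0.01 M/NaCl 0.15 M/0.05% P20 buffer, double-referenced.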

Assay [3] addresses T1, SOS1 catalytic domain (residues 564-1049). In words: Mode of Action Assay: inhibition of SOS1 nucleotide exchange activity (SOS1 TR-FRET IC50 Assay).
Description: The purpose of this assay was to characterize the inhibitory activity of compounds on SOS1 nucleotide exchange of KRAS. Data was reported as IC50 values based on the TR-FRET signal.
Note—the following protocol describes a procedure for monitoring the inhibition of SOS1 nucleotide exchange activity of wild-type KRAS in response to a compound of the invention.
The SOS1/compound mixture was incubated at room temperature with constant mixing on an orbital shaker for 20 minutes to allow the reaction to reach equilibrium. […] This mixture was prepared immediately before addition to the SOS1/compound mixture to prevent intrinsic nucleotide exchange. Then 5 μL of the pre-incubated SOS1/compound mixture and 7.5 μL of the KRAS mixture were added sequentially in a 384-well low volume black round bottom plate and incubated at room temperature with constant shaking for 30 minutes. Time-resolved fluorescence was measured on a PerkinElmer Envision plate reader.
Three replicates were performed for each compound. Data were normalized by the following: (Positive control−Sample signal)/(Positive control−negative control)*100. The data were fit using a four-parameter logistic fit.

For the compound `C[C@@H](Nc1nc(Cl)nc2c1CN(C(=O)N1C[C@@H]3C[C@H]1CN3C)C2)c1cccc(C(F)F)c1F` [Example 412], the IC50 in assay [1] and in assay [3] was below 1000 nM each time. The Kd in assay [2] is below 400 nM.
With `C[C@@H](Nc1nc(Cl)nc2c1CN(C(=O)N1CCCC13CCN(C)C3)C2)c1cccc(C(F)F)c1F` (stereo partly drawn) [Example 413], the IC50 in assay [1] and in assay [3] was below 1000 nM each time. The Kd in assay [2] is below 400 nM.
`C[C@@H](Nc1nc(Cl)nc2c1CN(C(=O)N1C[C@H]3CN(C)C[C@H]3C1)C2)c1cccc(C(F)F)c1F` [Example 414]: the half-inhibitory concentration (IC50) in assay [1] and in assay [3] was below 1000 nM in each case. For the same compound, the dissociation constant (Kd) in assay [2] was below 400 nM.
In the case of `C[C@@H](Nc1nc(Cl)nc2c1CN(C(=O)N1CC3CCC1CN3C)C2)c1cccc(C(F)F)c1F` (stereo partly drawn) [Example 415], the IC50 in assay [1] and in assay [3] was below 1000 nM each time. In addition, the Kd in assay [2] is below 400 nM.
Consider `C[C@@H](Nc1nc(Cl)nc2c1CN(C(=O)N1C[C@H]3C[C@@H]1CN3C)C2)c1cccc(C(F)F)c1F` [Example 416], for which the IC50 in assay [1] and in assay [3] was below 1000 nM in each case. Also, the Kd in assay [2] is below 400 nM.
Regarding `C[C@@H](Nc1nc(Cl)nc2c1CN(C(=O)N1CCN(C)C(c3ccncc3)C1)C2)c1cccc(C(F)F)c1F` (stereo partly drawn) [Example 417], the half-maximal inhibitory concentration (IC50) in assay [1] and in assay [3] was below 1000 nM throughout. The equilibrium dissociation constant (Kd) in assay [2] is below 400 nM.
For `C[C@@H](Nc1nc(Cl)nc2c1CN(C(=O)N1CCN(C)C(C(F)(F)F)C1)C2)c1cccc(C(F)F)c1F` (stereo partly drawn) [Example 418], the IC50 in assay [1] and in assay [3] was below 1000 nM in each case. Further, the Kd in assay [2] was below 400 nM.
For `C[C@@H](Nc1nc(Cl)nc2c1CN(C(=O)N1CCN(C)CC(F)(F)C1)C2)c1cccc(C(F)F)c1F` [Example 419], the IC50 in assay [1] and in assay [3] was below 1000 nM each time. In addition, the dissociation constant Kd in assay [2] was below 400 nM.
For `C[C@@H](Nc1nc(Cl)nc2c1CN(C(=O)N1CC3CC(C1)N3C)C2)c1cccc(C(F)F)c1F` [Example 420], the half-inhibitory concentration (IC50) in assay [1] and in assay [3] was below 1000 nM each time. In assay [2], the Kd was below 400 nM.
`C[C@@H](Nc1nc(Cl)nc2c1CN(C(=O)N1CC3CC1CN3C1COC1)C2)c1cccc(C(F)F)c1F` (stereo partly drawn) [Example 421]: the half-maximal inhibitory concentration (IC50) in assay [1] and in assay [3] was below 1000 nM throughout. Besides, in assay [2], the Kd was below 400 nM.
Take `C[C@@H](Nc1nc(Cl)nc2c1CN(C(=O)N1C3CC1CN(C1COC1)C3)C2)c1cccc(C(F)F)c1F` [Example 422]: the concentration for half-maximal inhibition (IC50) in assay [1] and in assay [3] was below 1000 nM throughout. Also, the dissociation constant Kd in assay [2] is below 400 nM.
Turning to `C[C@@H](Nc1nc(Cl)nc2c1CN(C(=O)N1CC3CCC(C1)N3C1COC1)C2)c1cccc(C(F)F)c1F` [Example 423], the half-maximal inhibitory concentration (IC50) in assay [1] and in assay [3] was below 1000 nM in each case. Moreover, in assay [2], the Kd was below 400 nM.
On to `C[C@@H]1OCC2(CCN(C(=O)N3Cc4nc(Cl)nc(N[C@H](C)c5cccc(C(F)F)c5F)c4C3)CC2)[C@@H]1N` [Example 424], for which the IC50 was above 1000 nM in assay [1] and below 1000 nM in assay [3]. In assay [2], the Kd was below 400 nM.
For the compound `C[C@@H](Nc1nc(Cl)nc2c1CN(C(=O)N1CC3CCC(C1)N3C)C2)c1cccc(C(F)F)c1F` [Example 429], the IC50 in assay [1] and in assay [3] was below 1000 nM throughout. Moreover, the equilibrium dissociation constant (Kd) in assay [2] was below 400 nM.
For the compound `C[C@@H](Nc1nc(Cl)nc2c1CN(C(=O)N1CCN(C)CC1)C2)c1cccc(C(F)F)c1F` [Example 430], the IC50 in assay [1] and in assay [3] was below 1000 nM in each case. The dissociation constant Kd in assay [2] was below 400 nM.
Turning to `C[C@@H](Nc1nc(Cl)nc2c1CC(N1CC3(COC3)C1)CC2)c1cc(N)cc(C(F)(F)F)c1` (stereo partly drawn) [Example 433], the half-inhibitory concentration (IC50) in assay [1] and in assay [3] was below 1000 nM each time. Besides, the Kd in assay [2] is below 400 nM.
For `C[C@@H](Nc1nc(Cl)nc2c1CC(N1CCN(C3CC3)CC1)CC2)c1cccc(C(F)(F)CO)c1` (stereo partly drawn) [Example 434], the half-maximal inhibitory concentration (IC50) in assay [1] and in assay [3] was below 1000 nM each time. Moreover, the dissociation constant Kd in assay [2] is below 400 nM.
Turning to `C[C@@H](Nc1nc(Cl)nc2c1CC(N1CCOCC1)CC2)c1cccc(C(F)(F)F)c1` (stereo partly drawn) [Example 435], the 50% inhibitory concentration (IC50) in assay [1] was above 1000 nM; in assay [3], below 1000 nM. Besides, the Kd in assay [2] was below 400 nM.
As for `C[C@@H](Nc1nc(Cl)nc2c1C[C@@H](N1CCOCC1)CC2)c1cccc(C(F)(F)CO)c1` [Example 436], the IC50 in assay [1] and in assay [3] was below 1000 nM in each case. Moreover, in assay [2], the equilibrium dissociation constant (Kd) is below 400 nM.
Take `C[C@@H](Nc1nc(Cl)nc2c1C[C@H](N1CCOCC1)CC2)c1cccc(C(F)(F)CO)c1` [Example 437]: the IC50 in assay [1] and in assay [3] was below 1000 nM in each case. The Kd in assay [2] is below 400 nM.
As for `C[C@@H](Nc1nc(Cl)nc2c1CC(N1CC3(COC3)C1)CC2)c1cccc(C(F)(F)CO)c1` (stereo partly drawn) [Example 438], the IC50 in assay [1] and in assay [3] was below 1000 nM each time. The Kd in assay [2] is below 400 nM.
As to `C[C@@H](Nc1ncnc2c1CC(N1CC3(COC3)C1)CC2)c1cccc(C(F)(F)CO)c1` (stereo partly drawn) [Example 439], the IC50 in assay [1] and in assay [3] was below 1000 nM throughout. Moreover, in assay [2], the Kd was below 400 nM.
Regarding `C[C@@H](Nc1nc(Cl)nc2c1C[C@@H](N1CCOCC1)CC2)c1cccc(C(F)F)c1F` [Example 440], the IC50 in assay [1] and in assay [3] was below 1000 nM in each case. For the same compound, the dissociation constant Kd in assay [2] is below 400 nM.
`C[C@@H](Nc1ncnc2c1CC(N1CC3(COC3)C1)CC2)c1cccc(C(F)F)c1F` (stereo partly drawn) [Example 442]: the half-inhibitory concentration (IC50) in assay [1] is above 1000 nM; in assay [3], below 1000 nM. For the same compound, the dissociation constant (Kd) in assay [2] is below 400 nM.
As to `COC1CN([C@H]2CCc3ncnc(N[C@H](C)c4cccc(C(F)F)c4F)c3C2)C1` [Example 444], the IC50 in assay [1] is above 1000 nM; in assay [3] it was below 1000 nM. In assay [2], the Kd was below 400 nM.
The corresponding values for `Cc1nc(N[C@H](C)c2cccc(C(F)F)c2F)c2c(n1)N(C)C(=O)N(C1CCN(C)CC1)C2` [Example 445, (R)-5-((1-(3-(difluoromethyl)-2-fluorophenyl)ethyl)amino)-1,7-dimethyl-3-(1-methylpiperidin-4-yl)-3,4-dihydropyrimido[4,5-d]pyrimidin-2(1H)-one] are above 1000 nM, below 1000 nM and above 400 nM.
On to `C[C@@H](Nc1nc(C2CNC2)nc2c1CN(C(=O)N1CCOCC1)C2)c1cccc(C(F)F)c1F` [Example 446, [2-(azetidin-3-yl)-4-[[(1R)-1-[3-(difluoromethyl)-2-fluoro-phenyl]ethyl]amino]-5,7-dihydropyrrolo[3,4-d]pyrimidin-6-yl]-morpholino-methanone], for which the IC50 is above 1000 nM in assay [1] and below 1000 nM in assay [3]. Besides, the Kd in assay [2] is below 400 nM.
For `C[C@@H](Nc1nc(C2CN(C)C2)nc2c1CN(C(=O)N1CCOCC1)C2)c1cccc(C(F)F)c1F` [Example 447, (R)-(4-((1-(3-(difluoromethyl)-2-fluorophenyl)ethyl)amino)-2-(1-methylazetidin-3-yl)-5,7-dihydro-6H-pyrrolo[3,4-d]pyrimidin-6-yl)(morpholino)methanone], the IC50 was above 1000 nM in assay [1] and below 1000 nM in assay [3]. Moreover, the dissociation constant (Kd) in assay [2] is below 400 nM.
